Reference: paper PMC4865820, “Branched Peptide, B2088, Disrupts the Supramolecular Organization of Lipopolysaccharides and Sensitizes the Gram-negative Bacteria” (Scientific Reports, 2016)
In brackets after ≈: the same amount, converted by molar mass.

Assays:
P. aeruginosa DR4877/07 [1] = format: cell-based; conditions: for FICI of B2088-antibiotic combination: lowest FICI reported, two independent duplicates; for Fold decrease in the MIC of antibiotics at sub-lethal/sub-inhibitory concentrations of B2088: multidrug resistant P. aeruginosa 4877
In short: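 Checkerboard combinations of peptide and antibiotic, each 2-fold diluted up to 1× MIC in MHB, were tested against ~10^6 CFU/ml final inoculum. Plates were incubated 24 h at 37 °C, with growth read at OD600. FICI was the sum of the combination-to-alone MIC ratios for each agent, and the lowest FICI from duplicate experiments was reported.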

P. aeruginosa DR4877/07 [2] = assay: microbe, parasite or virus in culture; conditions: Pseudomonas aeruginosa, DR4877/07, 24 h, read-out: MIC of antibiotics
Experimental: (§1) MIC of each peptide was determined using the microdilution method in a 96 well microtitre plates (SPL Life Sciences Co., Ltd, Korea). Two-fold serial dilutions of each peptide in Mueller-Hinton Broth (MHB) was prepared from a 1 mg/ml stock solution of the peptide in the same broth, to obtain a final concentration in the range of 0.0976–50 μg/ml in each well. Bacterial suspensions (P. aeruginosa ATCC 27853, P. aeruginosa 4877, P. aeruginosa 23155, K. pneumoniae ATCC 10031 and K. pneumoniae 4299) were prepared by suspending the overnight cultured bacteria in saline and adjusting the inoculum to ~10^8 colony forming units (CFU) per ml. A further 150-fold dilution was then prepared in MHB to achieve a final cell density of 10^5–10^6 CFU/ml. In each well, 100 μl of inoculum was mixed with the equal volume of peptides at their 2× concentration. Positive and negative controls contained 200 μl of inoculum (without any peptide) and broth alone (no peptide/inoculum) respectively. Another negative control in which MHB containing 200 μl of peptide alone in its highest concentration tested (50 μg/ml) was also included to ensure that the optical density measured in the test wells was not due to turbidity of the peptides in solution. The 96 well polystyrene plates were then incubated at 37 °C for 24 h and the optical density at 600 nm (OD600) was measured every 30 min continuously using a TECAN microplate reader (TECAN Infinite 200, Austria).

[3] = system: E. coli D21 and LPS outer core polysaccharide truncated mutant strains; assay: MIC ratio against LPS-truncated E. coli mutants; format: cell-based; conditions: oligosaccharide-truncated mutants vs wild type D21; increase seen against D21e9 lacking outer core polysaccharides
Description: LPS is a complex glycosylated lipid molecule comprising of a hydrophobic lipid A and core oligosaccharides. The core oligosaccharides are structurally divided into an inner core (lipid A proximal) region and an outer core O-antigen region (Fig. 4a). To ascertain if the alterations in OM polysaccharides modify the barrier penetration and antimicrobial properties of the peptides, we determined the MIC of the peptides against 4 cell-wall defective mutants of E. coli (Fig. 4a). We report the MIC ratio (i.e., MICmut/MICwt) which is the ratio of MIC of peptides/antibiotics against oligosaccharides truncated mutant strains over MIC of wild type (D21) strains. For antibiotics that access intracellular targets through porin pathways or peptides that bind to the lipid A part of the LPS, the MIC ratio is independent of LPS truncation (Fig. 4b). However, antibiotics or peptides which interact with outer or inner core polysaccharides of the LPS are expected to show changes in the MIC ratio.
All the peptide congeners were purchased from M/s. Mimotopes Pty Ltd, Australia. The peptides were used as such and the homogeneity of peptides were confirmed by HPLC. Unless otherwise stated all the chemicals and the antibiotics tested were purchased from Sigma Aldrich (Singapore) Pte Ltd. The florescent probe, BODIPY TR cadaverine (BC) was purchased from Molecular Probes/ Invitrogen (CA, USA). E. coli LPS outer core polysaccharide truncated mutant strains were obtained from CGSG, The Coli Genetic Stock Centre, Yale University, […], USA. Relevant genotype of the strains are, D21 (rfa+); D21e19 (rfa-11) is a deficient mutant in carbohydrates close to the O-antigen part; D21e7 (rfa-1) is deficient in galactose as well as O-antigen; D21f1 (rfa-1, rfa21) lacks phosphate groups in the LPS has glucose and heptose intact; D21f2 (rfa-1, rfa-31) is deficient in heptose of the inner core[57][58].
as §1, with “Austria). All the experiments were performed in two independent duplicates and the MIC was determined as the lowest peptide concentration in which no visible growth was observed.” for “Austria).”

P. aeruginosa ATCC 27853 = assay: microbe, parasite or virus in culture; format: cell-based; conditions: Pseudomonas aeruginosa, ATCC27853; antibiotic alone; read-out: MIC of gentamicin against this strain
In short: (§2)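 Peptides two-fold diluted in Mueller-Hinton Broth (0.0976–50 μg/ml final) against 10^5–10^6 CFU/ml inoculum, 37 °C for 24 h with OD600 monitored every 30 min. MIC = lowest concentration with no visible growth; two independent duplicates.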

K. pneumonia 4299 [4] = assay: microbe, parasite or virus in culture; format: cell-based, K. pneumoniae; conditions: Klebsiella pneumoniae, 4299; individual peptide/antibiotics; read-out: MIC against K. pneumoniae 4299
In short: as §2

P. aeruginosa ATCC 9027 [5] = assay: MIC, microdilution; format: cell-based
K. pneumoniae 31158 = assay: microbe, parasite or virus in culture; format: cell-based; conditions: Klebsiella pneumoniae, 31158; individual peptide/antibiotics; read-out: MIC against K. pneumoniae 31158
K. pneumoniae 07955 = assay: microbe, parasite or virus in culture; format: cell-based; conditions: Klebsiella pneumoniae, 07955; individual peptide/antibiotics; read-out: MIC against K. pneumoniae 07955
K. pneumonia 31158 = assay: Checkerboard assay; format: cell-based, K. pneumoniae; conditions: for Fractional inhibitory concentration of B2088 used for FICI calculation: first number in parenthesis, in combination with the labelled antibiotic; for Fractional inhibitory concentration of antibiotic used for FICI calculation: second number in parenthesis, in combination with B2088
Experimental: (§3) The synergism between peptides with conventional antibiotics was evaluated using checkerboard assays. For a comparison polymyxin B (PMB) was also tested against each antibiotic. From their stock solutions, two-fold dilutions of each antibiotic and peptide to 1× MIC were prepared in MHB. 50 μl of each peptide concentration was added into the wells of a 96-well polystyrene plates (SPL Life Sciences Co. Ltd, Korea) in a horizontal orientation and the same volume of each antibiotic concentration were then added in a vertical orientation. Bacterial suspensions were prepared in MHB to yield final cell density of ~10^6 CFU/ml and 100 μl of bacterial suspension was mixed with each peptide-antibiotic combinations. This procedure was repeated for wells containing 200 μl of peptide alone and 200 μl of antibiotic alone in various concentrations. The positive and negative controls contained 200 μl of inoculum and MHB alone respectively. The plates were incubated at 37 °C for 24 hours and the optical density at 600 nm (OD600) was monitored as before. Fractional inhibitory concentration index (FICI) for all antibiotic- peptide combinations was calculated through the summation of (MIC of peptide in the combination/ MIC of peptide alone) and (MIC of antibiotics in combination/MIC of antibiotic alone). The experiments were performed in two independent duplicates and the combinations that gave the lowest FICI values was reported.

K. pneumonia 07955 = assay: Checkerboard assay; format: cell-based, K. pneumoniae; conditions: for Fractional inhibitory concentration of B2088 used for FICI calculation: first number in parenthesis, in combination with the labelled antibiotic; for Fractional inhibitory concentration of antibiotic used for FICI calculation: second number in parenthesis, in combination with B2088
Experimental: as §3

K. pneumonia 4299 [6] = assay: Checkerboard assay; format: cell-based, K. pneumoniae; conditions: for Fractional inhibitory concentration of B2088 used for FICI calculation: first number in parenthesis, in combination with the labelled antibiotic; for Fractional inhibitory concentration of antibiotic used for FICI calculation: second number in parenthesis, in combination with B2088
Experimental: as §3

P. aeruginosa ATCC 9027 [7] = assay: Checkerboard assay; format: cell-based
Experimental: as §3

[8] = MIC of B2088 6.25 μg/ml, MHB, ~10^6 CFU/ml, 37 °C, 24 h

Structure (SMILES) | MIC of antibiotics in the presence of ¼× sub-MIC of B2088 (P. aeruginosa DR4877/07 [1]; [8]) | MIC of antibiotics in the presence of ½× sub-MIC of B2088 (P. aeruginosa DR4877/07 [1]; [8]) | FICI of B2088-antibiotic combination (P. aeruginosa DR4877/07 [1]) | MIC (P. aeruginosa DR4877/07 [2]) | MIC ratio (MICmut/MICwt) [3] | MIC (K. pneumonia 4299 [4]) | Fold decrease in the MIC of antibiotics at sub-lethal/sub-inhibitory concentrations of B2088 (P. aeruginosa DR4877/07 [1]) | MIC (K. pneumoniae 31158) | MIC (K. pneumoniae 07955) | Fractional Inhibitory Concentration Index of B2088 with the antibiotic (K. pneumonia 31158) | Fractional inhibitory concentration of B2088 used for FICI calculation (K. pneumonia 31158) | Fractional inhibitory concentration of antibiotic used for FICI calculation (K. pneumonia 31158) | Fractional Inhibitory Concentration Index of B2088 with the antibiotic (K. pneumonia 07955) | Fractional inhibitory concentration of B2088 used for FICI calculation (K. pneumonia 07955) | Fractional inhibitory concentration of antibiotic used for FICI calculation (K. pneumonia 07955) | Fractional Inhibitory Concentration Index of B2088 with the antibiotic (K. pneumonia 4299 [6]) | Fractional inhibitory concentration of B2088 used for FICI calculation (K. pneumonia 4299 [6]) | Fractional inhibitory concentration of antibiotic used for FICI calculation (K. pneumonia 4299 [6]) | also measured
CC1(C)S[C@@H]2[C@H](NC(=O)C(C(=O)O)c3ccccc3)C(=O)N2[C@H]1C(=O)O (stereo partly drawn) [Carbenicillin, reference compound] | 800 µg/mL | 200 µg/mL | 0.63 | 1600 µg/mL | did not show any change | – | – | – | – | – | – | – | – | – | – | – | – | – | –
CNC(C)C1CCC(N)C(OC2C(N)CC(N)C(OC3OCC(C)(O)C(NC)C3O)C2O)O1 (stereo not drawn) [Gentamicin] | – | – | – | – | marked increase | 0.39 µg/mL (≈ 0.817 µM) | 4 fold | 0.05 µg/mL (≈ 0.105 µM) | 100 µg/mL (≈ 209 µM) | 0.31 | 0.25 | 0.06 | 0.75 | 0.25 | 0.5 | 0.37 | 0.125 | 0.25 | MIC (P. aeruginosa ATCC 27853): 0.04 µg/mL; MIC of antibiotics (Table S1) (P. aeruginosa ATCC 9027 [5]; Gentamycin alone, ATCC 9027): 0.39 µg/mL; MIC of antibiotics (P. aeruginosa ATCC 9027 [5]; gentamicin alone, ATCC 9027 used because DR4877/07 too resistant): 0.39 µg/mL; FICI of polymyxin B-antibiotic combination (P. aeruginosa ATCC 9027 [7]; Gentamycin): 1.0; MIC of antibiotics in the presence of ½ × sub-MIC of Polymyxin B (P. aeruginosa ATCC 9027 [7]; Gentamycin): 0.195 µg/mL; MIC of antibiotics in the presence of ¼× sub-MIC of B2088 (P. aeruginosa ATCC 9027 [7]; gentamicin): 0.098 µg/mL; MIC of antibiotics in the presence of ½× sub-MIC of B2088 (P. aeruginosa ATCC 9027 [7]; gentamicin): 0.024 µg/mL; MIC of antibiotics in the presence of ⅛× sub-MIC of B2088 (P. aeruginosa ATCC 9027 [7]; gentamicin): 0.195 µg/mL; FICI of B2088-antibiotic combination (P. aeruginosa ATCC 9027 [7]; gentamicin, lowest FICI reported): 0.5
O=C(N[C@H](CO)[C@H](O)c1ccc([N+](=O)[O-])cc1)C(Cl)Cl [Chloramphenicol] | 50 µg/mL | 25 µg/mL | 0.5 | 200 µg/mL | marked increase | 12.5 µg/mL (≈ 38.7 µM) | 4 fold | 3.12 µg/mL (≈ 9.67 µM) | 50 µg/mL (≈ 155 µM) | 0.63 | 0.5 | 0.13 | 0.38 | 0.13 | 0.25 | 0.38 | 0.13 | 0.25 | FICI of polymyxin B-antibiotic combination (P. aeruginosa DR4877/07 [1]): 0.63; MIC of antibiotics in the presence of ⅛× sub-MIC of B2088 (P. aeruginosa DR4877/07 [1]; [8]): 100 µg/mL
